US8741836B2, “Polypeptides” (Novo Nordisk A/S, priority 2011, dated 2014)
Starred links: 1 amine or outer side, 2 acyl side, 3 side chain; linkers in the order of their positions; H or OH if unused. Positions of bridges follow the written chain, without caps; N, C: chain ends. Residues, ends and D or L forms follow the SMILES beside them. Groups on a side chain read outwards from the residue. *: point of attachment. C20 diacid = O=C(O)CCCCCCCCCCCCCCCCCCC(=O)*; γGlu = O=C(O)[C@H](CCC(=O)[*:2])N[*:1]; AEEA = NCCOCCOCC(=O)O

Assay: Assay (III) ThT fibrillation assay for physical stability
Type: physicochemical
Settings: for ThT pH 4.0 lag time: pH 4.0, ThT fibrillation assay
How it was run: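 Freshly prepared, pH-adjusted formulations with 1 μM ThT incubated at 37 °C under 960 rpm orbital shaking (1 mm), fluorescence (ex 444, em 485 nm) read every 20 min. […] Peptide content before and after measured by reverse-phase HPLC against pramlintide standard.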

Question: For `CC[C@H](C)[C@H](NC(=O)[C@@H]1CCCN1C(=O)CNC(=O)[C@H](Cc1ccccc1)NC(=O)[C@H](CC(N)=O)NC(=O)[C@H](CC(N)=O)NC(=O)[C@H](CO)NC(=O)[C@H](CO)NC(=O)[C@H](Cc1c[nH]cn1)NC(=O)[C@H](CCCNC(=N)N)NC(=O)[C@H](CC(C)C)NC(=O)[C@H](Cc1ccccc1)NC(=O)[C@H](CCC(=O)O)NC(=O)[C@H](C)NC(=O)[C@H](CC(C)C)NC(=O)[C@H](CCCNC(=N)N)NC(=O)[C@H](CCC(N)=O)NC(=O)[C@@H](NC(=O)[C@H](C)NC(=O)[C@@H]1CSSC[C@H](NC(=O)[C@H](CCCCN)NC(=O)[C@H](Cc2c[nH]cn2)NC(=O)CC[C@H](NC(=O)CCCCCCCCCCCCCCCCCCC(=O)O)C(=O)O)C(=O)N[C@@H](CC(N)=O)C(=O)N[C@@H]([C@@H](C)O)C(=O)N[C@@H](C)C(=O)N[C@@H]([C@@H](C)O)C(=O)N1)[C@@H](C)O)C(=O)N[C@@H](CC(C)C)C(=O)N1CCC[C@H]1C(=O)N1CCC[C@H]1C(=O)N[C@H](C(=O)N[C@@H](CC(N)=O)C(=O)N[C@H](C(=O)NCC(=O)N[C@@H](CO)C(=O)N[C@@H](Cc1c[nH]cn1)C(=O)N[C@H](C(=O)N[C@@H](Cc1ccc(O)cc1)C(N)=O)[C@@H](C)O)C(C)C)[C@@H](C)O` [Example 68, N-alpha-[(S)-4-Carboxy-4-(19-carboxynonadecanoylamino)butyryl]-His-[Glu14,Arg17,His35]-pramlintide] ({C20 diacid-γGlu}-HKCNTATCATQRLAEFLRHSSNNFGPILPPTNVGSHTY-NH2; disulfide 3-8 (inferred); C-terminus assumed), which “ThT pH 4.0 lag time” value is on record?
Answer: >45 h

Question: With `CC(C)C[C@H](NC(=O)[C@H](CCCNC(=N)N)NC(=O)[C@H](CCC(N)=O)NC(=O)[C@@H](NC(=O)[C@H](C)NC(=O)[C@@H]1CSSC[C@H](NC(=O)[C@H](CCCCN)NC(=O)CC[C@H](NC(=O)CCCCCCCCCCCCCCCCCCC(=O)O)C(=O)O)C(=O)N[C@@H](CC(N)=O)C(=O)N[C@@H]([C@@H](C)O)C(=O)N[C@@H](C)C(=O)N[C@@H]([C@@H](C)O)C(=O)N1)[C@@H](C)O)C(=O)N[C@@H](C)C(=O)N[C@@H](CCC(=O)O)C(=O)N[C@@H](Cc1ccccc1)C(=O)N[C@@H](CC(C)C)C(=O)N[C@@H](CCCNC(=N)N)C(=O)N[C@@H](Cc1c[nH]cn1)C(=O)N[C@@H](CO)C(=O)N[C@@H](CO)C(=O)N[C@@H](CC(N)=O)C(=O)N[C@@H](CC(N)=O)C(=O)N[C@@H](Cc1ccccc1)C(=O)NCC(=O)N[C@@H](C)C(=O)N1CCC[C@H]1C(=O)N[C@@H](CC(C)C)C(=O)N[C@@H](CO)C(=O)N[C@@H](CO)C(=O)N[C@H](C(=O)N[C@@H](CC(N)=O)C(=O)N[C@H](C(=O)NCC(=O)N[C@@H](CO)C(=O)N[C@@H](Cc1c[nH]cn1)C(=O)N[C@H](C(=O)N[C@@H](Cc1ccc(O)cc1)C(N)=O)[C@@H](C)O)C(C)C)[C@@H](C)O` [Example 65, N-alpha-[(S)-4-Carboxy-4-(19-carboxynonadecanoylamino)butyryl]-[Glu14,Arg17,Ala25,Pro26,Ser28,Ser29,His35]-pramlintide] ({C20 diacid-γGlu}-KCNTATCATQRLAEFLRHSSNNFGAPLSSTNVGSHTY-NH2; disulfide 2-7) as the compound, how does the “ThT pH 4.0 lag time” value read?
Answer: >45 h

Question: Which “ThT pH 4.0 lag time (physical stability in fibrillogenesis assay)” value does the source give for `CC[C@H](C)[C@H](NC(=O)[C@@H]1CCCN1C(=O)CNC(=O)[C@H](Cc1ccccc1)NC(=O)[C@H](CC(N)=O)NC(=O)[C@H](CC(N)=O)NC(=O)[C@H](CO)NC(=O)[C@H](CO)NC(=O)[C@H](Cc1c[nH]cn1)NC(=O)[C@H](Cc1c[nH]cn1)NC(=O)[C@H](CC(C)C)NC(=O)[C@H](Cc1ccccc1)NC(=O)[C@H](CCC(=O)O)NC(=O)[C@H](C)NC(=O)[C@H](CC(C)C)NC(=O)[C@H](CCCNC(=N)N)NC(=O)[C@H](CCC(N)=O)NC(=O)[C@@H](NC(=O)[C@H](C)NC(=O)[C@@H]1CSSC[C@H](NC(=O)[C@H](CCCCN)NC(=O)CC[C@H](NC(=O)CCCCCCCCCCCCCCCCCCC(=O)O)C(=O)O)C(=O)N[C@@H](CC(N)=O)C(=O)N[C@@H]([C@@H](C)O)C(=O)N[C@@H](C)C(=O)N[C@@H]([C@@H](C)O)C(=O)N1)[C@@H](C)O)C(=O)N[C@@H](CC(C)C)C(=O)N1CCC[C@H]1C(=O)N1CCC[C@H]1C(=O)N[C@H](C(=O)N[C@@H](CC(N)=O)C(=O)N[C@H](C(=O)NCC(=O)N[C@@H](CO)C(=O)N[C@@H](CCC(N)=O)C(=O)N[C@H](C(=O)N1CCC[C@H]1C(N)=O)[C@@H](C)O)C(C)C)[C@@H](C)O` [Example 135, N-alpha-[(S)-4-Carboxy-4-(19-carboxynonadecanoylamino)butyryl]-[Glu14,His17,Gln35,Pro37]-pramlintide] ({C20 diacid-γGlu}-KCNTATCATQRLAEFLHHSSNNFGPILPPTNVGSQTP-NH2; disulfide 2-7) here?
Answer: >45 h

Question: What about the “ThT pH 4.0 lag time” value of the same compound?
Answer: >45 h

Question: Which “ThT pH 4.0 lag time (physical stability in fibrillogenesis assay)” value does the source give for `CC[C@H](C)[C@H](NC(=O)[C@@H]1CCCN1C(=O)CNC(=O)[C@H](Cc1ccccc1)NC(=O)[C@H](CC(N)=O)NC(=O)[C@H](CCCCNC(=O)COCCOCCNC(=O)COCCOCCNC(=O)CC[C@H](NC(=O)CCCCCCCCCCCCCCCCCCC(=O)O)C(=O)O)NC(=O)[C@H](CO)NC(=O)[C@H](CO)NC(=O)[C@H](CCCNC(=N)N)NC(=O)[C@@H](NC(=O)[C@H](CC(C)C)NC(=O)[C@H](Cc1ccccc1)NC(=O)[C@H](CCC(=O)O)NC(=O)[C@H](C)NC(=O)[C@H](CC(C)C)NC(=O)[C@H](CCCNC(=N)N)NC(=O)[C@H](CCC(N)=O)NC(=O)[C@@H](NC(=O)[C@H](C)NC(=O)[C@@H]1CSSC[C@H](NC(=O)[C@@H](N)CCCCN)C(=O)N[C@@H](CC(N)=O)C(=O)N[C@@H]([C@@H](C)O)C(=O)N[C@@H](C)C(=O)N[C@@H]([C@@H](C)O)C(=O)N1)[C@@H](C)O)C(C)C)C(=O)N[C@@H](CC(C)C)C(=O)N[C@@H](CO)C(=O)N[C@@H](CCCNC(=N)N)C(=O)N[C@H](C(=O)N[C@@H](CC(N)=O)C(=O)N[C@H](C(=O)NCC(=O)N[C@@H](CO)C(=O)N[C@@H](CCCNC(=N)N)C(=O)N[C@H](C(=O)N[C@@H](Cc1ccc(O)cc1)C(N)=O)[C@@H](C)O)C(C)C)[C@@H](C)O` [Example 150, N-epsilon21-[2-(2-{2-[2-(2-{2-[(S)-4-Carboxy-4-(19-carboxyheptadecanoylamino)butyrylamino]ethoxy}ethoxy)acetylamino]ethoxy}ethoxy)acetyl]-[Glu14,Arg18,Lys21,Ser28,Arg29,Arg35]-pramlintide] (H-KCNTATCATQRLAEFLVRSSK([AEEA-AEEA-γGlu-C20 diacid])NFGPILSRTNVGSRTY-NH2; disulfide 2-7) here?
Answer: >45 h

Question: With `CC[C@H](C)[C@H](NC(=O)[C@@H]1CCCN1C(=O)CNC(=O)[C@H](Cc1ccccc1)NC(=O)[C@H](CC(N)=O)NC(=O)[C@H](CC(N)=O)NC(=O)[C@H](CO)NC(=O)[C@H](CO)NC(=O)[C@H](Cc1c[nH]cn1)NC(=O)[C@H](CCCNC(=N)N)NC(=O)[C@H](CC(C)C)NC(=O)[C@H](Cc1ccccc1)NC(=O)[C@H](CCC(=O)O)NC(=O)[C@H](C)NC(=O)[C@H](CC(C)C)NC(=O)[C@H](CCCNC(=N)N)NC(=O)[C@H](CCC(N)=O)NC(=O)[C@@H](NC(=O)[C@H](C)NC(=O)[C@@H]1CSSC[C@H](NC(=O)[C@H](CCCCN)NC(=O)CC[C@H](NC(=O)CCCCCCCCCCCCCCCCCCC(=O)O)C(=O)O)C(=O)N[C@@H](CC(N)=O)C(=O)N[C@@H]([C@@H](C)O)C(=O)N[C@@H](C)C(=O)N[C@@H]([C@@H](C)O)C(=O)N1)[C@@H](C)O)C(=O)N[C@@H](CC(C)C)C(=O)N1CCC[C@H]1C(=O)N1CCC[C@H]1C(=O)N[C@H](C(=O)N[C@@H](CC(N)=O)C(=O)N[C@H](C(=O)NCC(=O)N[C@@H](CO)C(=O)N[C@@H](Cc1cnc[nH]1)C(=O)N[C@H](C(=O)N[C@@H](Cc1ccc(O)cc1)C(N)=O)[C@@H](C)O)C(C)C)[C@@H](C)O` [Example 57, N-alpha-[(S)-4-Carboxy-4-(19-carboxynonadecanoylamino)butyryl]-[Glu14,Arg17,His35]-pramlintide] ({C20 diacid-γGlu}-KCNTATCATQRLAEFLRHSSNNFGPILPPTNVGSHTY-NH2; disulfide 2-7) as the compound, how does the “ThT pH 4.0 lag time (physical stability in fibrillogenesis assay)” value read?
Answer: >45 h

Question: For `CC[C@H](C)[C@H](NC(=O)[C@@H]1CCCN1C(=O)CNC(=O)[C@H](Cc1ccccc1)NC(=O)[C@H](CC(N)=O)NC(=O)[C@H](CCC(N)=O)NC(=O)[C@H](CO)NC(=O)[C@H](CO)NC(=O)[C@H](Cc1c[nH]cn1)NC(=O)[C@H](CCCNC(=N)N)NC(=O)[C@H](CC(C)C)NC(=O)[C@H](Cc1ccccc1)NC(=O)[C@H](CCC(=O)O)NC(=O)[C@H](C)NC(=O)[C@H](CC(C)C)NC(=O)[C@H](CCCNC(=N)N)NC(=O)[C@H](CCC(N)=O)NC(=O)[C@@H](NC(=O)[C@H](C)NC(=O)[C@@H]1CSSC[C@H](NC(=O)[C@H](CCC(=O)O)NC(=O)[C@H](CCCNC(=N)N)NC(=O)[C@H](CCC(=O)O)NC(=O)CC[C@H](NC(=O)CCCCCCCCCCCCCCCCCCC(=O)O)C(=O)O)C(=O)N[C@@H](CC(N)=O)C(=O)N[C@@H]([C@@H](C)O)C(=O)N[C@@H](C)C(=O)N[C@@H]([C@@H](C)O)C(=O)N1)[C@@H](C)O)C(=O)N[C@@H](CC(C)C)C(=O)N1CCC[C@H]1C(=O)N1CCC[C@H]1C(=O)N[C@H](C(=O)N[C@@H](CC(N)=O)C(=O)N[C@H](C(=O)NCC(=O)N[C@@H](CO)C(=O)N[C@@H](CCC(N)=O)C(=O)N[C@H](C(=O)N1CCC[C@H]1C(N)=O)[C@@H](C)O)C(C)C)[C@@H](C)O` [Example 162, N-alpha-[(S)-4-Carboxy-4-(19-carboxynonadecanoylamino)butyryl]-Glu-Arg-[Glu1,Glu14,Arg17,Gln21,Gln35,Pro37]-pramlintide] ({C20 diacid-γGlu}-ERECNTATCATQRLAEFLRHSSQNFGPILPPTNVGSQTP-NH2; disulfide 4-9 (inferred); C-terminus assumed), which “ThT pH 4.0 lag time (physical stability in fibrillogenesis assay)” value is on record?
Answer: >45 h

Question: And the “ThT pH 4.0 lag time” value?
Answer: >45 h
